For series [1], the target named is T1, PDE4A1A (Homo sapiens, UniProt P27815).
T1 construct: purchased BPS 60040
Briefly: PDE4 activity inhibition assay, PDE4A1A. In kind it is biochemical. The settings on record: FAM-cAMP substrate, 30 minutes at room temperature.

Series [2] in a line: PK parameter test in SD rats. In kind it is in vivo, Sprague-Dawley rats. The settings on record: male SD rats; for Tmax / AUC / half-life: Sprague-Dawley, rat, plasma; for F: po 10 mg/kg vs iv 3 mg/kg. How it is done: Test compounds were administered intravenously or intragastrically singly to SD rats.
Blood samples were collected at different time points. LC-MS/MS was used to determine the concentration of the test compounds in rat plasma after administration of tested compounds and calculate the relevant PK parameters.
The test compounds are calculated based on free radicals and are converted only by purity.
A suitable amount of the test compound was added 5% DMSO+95% HP-beta-CD (20%) to prepare a solution of 0.6 mg/mL for intravenous administration.
A suitable amount of the test compound was added 5% DMSO+95% HP-beta-CD (20%) to prepare a solution of 1 mg/mL for intragastrical administration.
Male Sprague-Dawley rats were purchased from Shanghai Xipuer-Bikai Laboratory Animal Co., Ltd. There were 3 rats in each group. One group was used as control to collect blank plasma. The other groups were given each test compound by intravenous injection (the dose was 3 mg/kg) or intragastrical administration (the dose was 10 mg/kg). Heparin sodium was used for anticoagulation. Analyze the concentration of the test compound in the blood sample.
Abrosia for 10-14 hours before oral administration of the test compounds and resume feeding 4 hours after oral administration of the test compounds.
The time points of blood sample collection were: intravenous injection: before administration and at 0.083 hour, 0.25 hour, 0.5 hour, 1 hour, 2 hour, 4 hour, 6 hour, 8 hour, 24 hour after administration; oral administration: before administration and at 0.25 hour, 0.5 hour, 1 hour, 2 hour, 4 hour, 6 hour, 8 hour, 24 hour after administration. Blood samples were collected through jugular vein puncture. About 0.25 mL blood was collected for each sample. Heparin sodium was used for anticoagulation and the samples were placed on ice after collection. Blood samples were placed on ice after collection, and plasma was separated by centrifugation (centrifugation condition: 8000 rpm, 6 min, 2-8° C.). The collected plasma was stored at −80° C. before analysis.
50 μL plasma sample was added into a 1.5 mL centrifugal tube, and 250 μL internal standard solution (the same volume of methanol was added to blank sample instead of internal standard) was added to the sample. The sample was mixed in a whirlpool and centrifuged for 5 minutes at 14000 rpm. The supernatant of 200 μL was added to 96-well plate for LC-MS/MS analysis.
The pharmacokinetic parameters of the test compounds were calculated using the non-compartment model of WinNonlin v5.2, a software for pharmacokinetic calculation, based on the data of plasma concentration.

In series [3] the target is T2, PDE4B1 (Homo sapiens, UniProt Q07343).
T2 construct: purchased BPS 60041
The experiment in a line: PDE4 activity inhibition assay, PDE4B1. Type of series: biochemical. The conditions noted are these: FAM-cAMP substrate, 30 minutes at room temperature.

Series [4] deals with T3, PDE4D3 (Homo sapiens, UniProt Q08499).
T3 construct: purchased BPS 60046
The experiment in a line: PDE4 activity inhibition assay, PDE4D3. In kind it is biochemical. The conditions noted are these: FAM-cAMP substrate, 30 minutes at room temperature.

Setting [5] is: po, intragastrical administration 10 mg/kg.
The mark [6] stands for this setting: po, intragastrical administration 10 mg/kg, read-out: AUC(po).
[7] abbreviates: po, intragastrical administration 10 mg/kg, read-out: T1/2(po) (converted).
Where [8] appears, read: intravenous injection 3 mg/kg, read-out: AUC(iv).
[9] abbreviates: intravenous injection 3 mg/kg, read-out: T1/2 (IV) (converted).

By IC50 is commonly meant the midpoint of a concentration-inhibition curve. Low values mean greater potency in that assay, high ones weaker potency in that assay. A word on the Tmax: it is the time from dosing to the highest level. Broadly, the AUC is concentration integrated over time.

Structures are written as SMILES. Like-named read-outs stand apart in the source and are kept apart here.

T3 sequence (Q08499 1-673 isoform Q08499-2): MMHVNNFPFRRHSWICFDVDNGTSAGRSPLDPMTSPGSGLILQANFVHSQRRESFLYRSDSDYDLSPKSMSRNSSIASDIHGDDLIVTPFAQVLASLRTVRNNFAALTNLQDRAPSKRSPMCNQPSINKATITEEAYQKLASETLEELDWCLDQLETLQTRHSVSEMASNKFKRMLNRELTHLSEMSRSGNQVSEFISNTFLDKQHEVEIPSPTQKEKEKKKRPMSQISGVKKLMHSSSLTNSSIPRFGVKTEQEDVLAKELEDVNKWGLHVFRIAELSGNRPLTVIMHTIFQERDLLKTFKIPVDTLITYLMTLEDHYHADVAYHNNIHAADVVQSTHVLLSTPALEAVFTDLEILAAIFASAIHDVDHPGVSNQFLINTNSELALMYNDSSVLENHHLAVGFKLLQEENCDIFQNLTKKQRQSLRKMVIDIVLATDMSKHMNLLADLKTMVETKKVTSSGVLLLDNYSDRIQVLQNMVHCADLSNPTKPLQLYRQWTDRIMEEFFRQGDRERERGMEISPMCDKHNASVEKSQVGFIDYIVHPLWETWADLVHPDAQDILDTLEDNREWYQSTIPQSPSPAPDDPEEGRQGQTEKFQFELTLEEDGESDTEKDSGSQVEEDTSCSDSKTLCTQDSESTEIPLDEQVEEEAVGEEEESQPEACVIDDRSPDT
T1 sequence (P27815 1-647 isoform P27815-4): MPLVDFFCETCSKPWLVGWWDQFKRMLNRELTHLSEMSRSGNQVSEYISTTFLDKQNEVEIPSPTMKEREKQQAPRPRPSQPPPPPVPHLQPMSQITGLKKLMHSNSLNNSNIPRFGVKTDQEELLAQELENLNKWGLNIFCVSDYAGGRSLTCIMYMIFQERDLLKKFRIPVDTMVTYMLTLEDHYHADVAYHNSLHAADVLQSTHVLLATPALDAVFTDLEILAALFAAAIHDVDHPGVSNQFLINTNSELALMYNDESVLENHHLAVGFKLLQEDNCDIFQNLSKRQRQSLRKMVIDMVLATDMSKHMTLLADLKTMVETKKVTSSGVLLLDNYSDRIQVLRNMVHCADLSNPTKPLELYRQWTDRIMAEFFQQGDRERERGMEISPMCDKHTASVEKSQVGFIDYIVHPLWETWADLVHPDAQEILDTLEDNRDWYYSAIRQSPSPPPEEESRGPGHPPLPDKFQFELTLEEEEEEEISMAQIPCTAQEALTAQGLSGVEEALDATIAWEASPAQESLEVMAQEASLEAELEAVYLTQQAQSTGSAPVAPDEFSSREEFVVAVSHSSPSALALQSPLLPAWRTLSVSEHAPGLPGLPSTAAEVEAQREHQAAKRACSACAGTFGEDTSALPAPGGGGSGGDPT
T2 sequence (Q07343 whole entry): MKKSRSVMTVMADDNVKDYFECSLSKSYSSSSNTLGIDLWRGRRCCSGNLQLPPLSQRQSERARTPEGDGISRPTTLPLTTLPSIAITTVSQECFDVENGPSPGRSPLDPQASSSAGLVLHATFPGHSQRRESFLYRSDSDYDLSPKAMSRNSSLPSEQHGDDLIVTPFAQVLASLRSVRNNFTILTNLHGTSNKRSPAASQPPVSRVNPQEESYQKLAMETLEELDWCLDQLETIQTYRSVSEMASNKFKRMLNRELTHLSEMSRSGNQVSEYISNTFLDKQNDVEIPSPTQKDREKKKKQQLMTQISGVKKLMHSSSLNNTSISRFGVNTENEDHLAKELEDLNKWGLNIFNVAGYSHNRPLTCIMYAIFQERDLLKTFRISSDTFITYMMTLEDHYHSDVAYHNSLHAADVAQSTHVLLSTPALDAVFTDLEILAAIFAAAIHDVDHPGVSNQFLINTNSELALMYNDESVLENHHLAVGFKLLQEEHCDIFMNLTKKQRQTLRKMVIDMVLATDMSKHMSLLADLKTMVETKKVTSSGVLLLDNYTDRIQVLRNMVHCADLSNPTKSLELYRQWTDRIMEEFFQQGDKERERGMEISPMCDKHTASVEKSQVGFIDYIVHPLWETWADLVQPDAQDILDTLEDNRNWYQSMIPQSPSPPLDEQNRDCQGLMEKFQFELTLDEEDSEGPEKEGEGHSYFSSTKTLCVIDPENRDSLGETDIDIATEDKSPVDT

As to `CCOc1nc([C@@H](CS(C)(=O)=O)N2C(=O)c3cccc(NC(C)=O)c3C2=O)ccc1OC` [Compound 702, (S)—N-(2-(1-(6-ethoxy-5-methoxypyridin-2-yl)-2-(methylsulfonyl)ethyl)-1,3-dioxoisoindolin-4-yl)acetamide], the IC50 in series [1] worked out at 2.2 nM; in series [3], 4.7 nM; in series [4] it was 4 nM. Besides, the Tmax in series [2] (setting [5]) turned out to be 40.2 min. The figures for the AUC in series [2] (setting [6]) and in series [2] (setting [8]) were 1050 ng·h/mL and 1330 ng·h/mL, respectively. The half-life was 392 min in series [2] (setting [7]) and 22.8 min in series [2] (setting [9]). In addition, in series [2], the F was 15.5.
As for `CCOc1nc([C@@H](CS(C)(=O)=O)N2C(=O)c3c(F)ccc(NC(C)=O)c3C2=O)ccc1OC` [Compound 705, (S)—N-(2-(1-(6-ethoxy-5-methoxypyridin-2-yl)-2-(methylsulfonyl)ethyl)-7-fluoro-1,3-dioxoisoindolin-4-yl)acetamide], the results for the IC50 in series [1], in series [3] and in series [4] were 0.58 nM, 1.6 nM and 0.53 nM, respectively. The Tmax in series [2] (setting [5]) was found to be 30 min. The results for the exposure (AUC) in series [2] (setting [6]) and in series [2] (setting [8]) were 3590 ng·h/mL and 1340 ng·h/mL, respectively. Moreover, the values for the half-life in series [2] (setting [7]) and in series [2] (setting [9]) were 555 min and 55.2 min, respectively. Besides, the F in series [2] amounted to 80.2.
`CCOc1nc([C@@H](CS(C)(=O)=O)N2C(=O)c3cc(F)cc(NC(C)=O)c3C2=O)ccc1OC` [Compound 708, (S)—N-(2-(1-(6-ethoxy-5-methoxypyridin-2-yl)-2-(methylsulfonyl)ethyl)-6-fluoro-1,3-dioxoisoindolin-4-yl)acetamide]: the IC50 was found to be 3.1 nM in series [1], 5.1 nM in series [3] and 1.6 nM in series [4]. In series [2] (setting [5]), the Tmax was 40.2 min. For the same molecule, the AUC in series [2] (setting [6]) turned out to be 51 ng·h/mL; in series [2] (setting [8]) it was 945 ng·h/mL. Also, the half-life in series [2] (setting [7]) was 253 min; in series [2] (setting [9]), 32.4 min. In series [2], this molecule yielded an F of 1.62.

Source of the values: patent publication US11337964B2, “Isoindoline derivative, pharmaceutical composition and use thereof” (Kangpu Biopharmaceuticals, Ltd., priority 2017, dated 2022).
